Species: Rattus norvegicus
Assay: DrugMatrix - Regimen: Daily Repeat
Format: toxicity, organism-based, Sprague-Dawley
Parameters: regimen Daily Repeat, gender Male, age 6-8 weeks
Settings: in vivo, po, 20 mg/kg, route oral GAVAGE, dose level Low, vehicle .5 % CMC; for ABSOLUTE BASOPHIL / ABSOLUTE EOSINOPHIL / ABSOLUTE LYMPHOCYTE / ABSOLUTE MONOCYTE / ABSOLUTE SEGMENTED NEUTROPHIL / BASOPHIL / EOSINOPHIL / ERYTHROCYTE COUNT / HEMATOCRIT / HEMOGLOBIN / LEUKOCYTE COUNT / LYMPHOCYTE / MEAN CORPUSCULAR HEMOGLOBIN / MEAN CORPUSCULAR HEMOGLOBIN CONCENTRATION / MEAN CORPUSCULAR VOLUME / MONOCYTE / NEUTROPHIL / NUCLEATED RED BLOOD CELLS / PLATELET COUNT: tissue Blood; for ALANINE AMINOTRANSFERASE / ALKALINE PHOSPHATASE / ASPARTATE AMINOTRANSFERASE / BLOOD UREA NITROGEN / CARBON DIOXIDE / CHLORIDE / CHOLESTEROL / CREATINE PHOSPHOKINASE / CREATININE / GLUCOSE / LACTATE DEHYDROGENASE / LIPASE / PHOSPHORUS / POTASSIUM / SODIUM / TOTAL BILIRUBIN / TOTAL PROTEIN / URIC ACID: tissue Plasma

O=C1CC2(CCCC2)CC(=O)N1CCCCN1CCN(c2ncccn2)CC1 [BUSPIRONE]
ABSOLUTE BASOPHIL (72 h, time 3 day): 0 CELLS/uL | ABSOLUTE EOSINOPHIL (72 h, time 3 day): 51 CELLS/uL | ABSOLUTE LYMPHOCYTE (72 h, time 3 day): 11615 CELLS/uL | ABSOLUTE MONOCYTE (72 h, time 3 day): 151.33 CELLS/uL | ABSOLUTE SEGMENTED NEUTROPHIL (72 h, time 3 day): 1416 CELLS/uL | BASOPHIL (72 h, time 3 day): 0% | EOSINOPHIL (72 h, time 3 day): 0.33% | ERYTHROCYTE COUNT (72 h, time 3 day): 5.69 x10E6/uL | HEMATOCRIT (72 h, time 3 day): 36.17% | HEMOGLOBIN (72 h, time 3 day): 14.1 G/DL | LEUKOCYTE COUNT (72 h, time 3 day): 13.23 x10E3/uL | LYMPHOCYTE (72 h, time 3 day): 87.67% | MEAN CORPUSCULAR HEMOGLOBIN (72 h, time 3 day): 24.73 pg | MEAN CORPUSCULAR HEMOGLOBIN CONCENTRATION (72 h, time 3 day): 39 G/DL | MEAN CORPUSCULAR VOLUME (72 h, time 3 day): 63.57 fL | MONOCYTE (72 h, time 3 day): 1% | NEUTROPHIL (72 h, time 3 day): 11% | NUCLEATED RED BLOOD CELLS (72 h, time 3 day): 0.33 /100WBC | PLATELET COUNT (72 h, time 3 day): 1072.33 x10E3/uL | ALANINE AMINOTRANSFERASE (72 h, time 3 day): 59.33 u/L | ALKALINE PHOSPHATASE (72 h, time 3 day): 480 u/L | ASPARTATE AMINOTRANSFERASE (72 h, time 3 day): 97 u/L | BLOOD UREA NITROGEN (72 h, time 3 day): 15 mg/dL | CARBON DIOXIDE (72 h, time 3 day): 23 mmol/L | CHLORIDE (72 h, time 3 day): 102 MEQ/L | CHOLESTEROL (72 h, time 3 day): 82.33 mg/dL | CREATINE PHOSPHOKINASE (72 h, time 3 day): 412 u/L | CREATININE (72 h, time 3 day): 0.23 mg/dL | GLUCOSE (72 h, time 3 day): 167 mg/dL | LACTATE DEHYDROGENASE (72 h, time 3 day): 304.33 u/L | LIPASE (72 h, time 3 day): 9 u/L | PHOSPHORUS (72 h, time 3 day): 13.47 mg/dL | POTASSIUM (72 h, time 3 day): 6.53 MEQ/L | SODIUM (72 h, time 3 day): 146.87 MEQ/L | TOTAL BILIRUBIN (72 h, time 3 day): 0.2 mg/dL | TOTAL PROTEIN (72 h, time 3 day): 6 G/DL | URIC ACID (72 h, time 3 day): 1.9 mg/dL | ABSOLUTE BASOPHIL (120 h, time 5 day): 0 CELLS/uL | ABSOLUTE EOSINOPHIL (120 h, time 5 day): 106.67 CELLS/uL | ABSOLUTE LYMPHOCYTE (120 h, time 5 day): 13027.67 CELLS/uL | ABSOLUTE MONOCYTE (120 h, time 5 day): 125.67 CELLS/uL | ABSOLUTE SEGMENTED NEUTROPHIL (120 h, time 5 day): 973.33 CELLS/uL | BASOPHIL (120 h, time 5 day): 0% | EOSINOPHIL (120 h, time 5 day): 0.67% | ERYTHROCYTE COUNT (120 h, time 5 day): 5.35 x10E6/uL | HEMATOCRIT (120 h, time 5 day): 34.23% | HEMOGLOBIN (120 h, time 5 day): 13.57 G/DL | LEUKOCYTE COUNT (120 h, time 5 day): 14.23 x10E3/uL | LYMPHOCYTE (120 h, time 5 day): 91.67% | MEAN CORPUSCULAR HEMOGLOBIN (120 h, time 5 day): 25.4 pg | MEAN CORPUSCULAR HEMOGLOBIN CONCENTRATION (120 h, time 5 day): 39.67 G/DL | MEAN CORPUSCULAR VOLUME (120 h, time 5 day): 64.03 fL | MONOCYTE (120 h, time 5 day): 1% | NEUTROPHIL (120 h, time 5 day): 6.67% | NUCLEATED RED BLOOD CELLS (120 h, time 5 day): 0 /100WBC | PLATELET COUNT (120 h, time 5 day): 1461 x10E3/uL | ALANINE AMINOTRANSFERASE (120 h, time 5 day): 42.33 u/L | ALKALINE PHOSPHATASE (120 h, time 5 day): 354 u/L | ASPARTATE AMINOTRANSFERASE (120 h, time 5 day): 77 u/L | BLOOD UREA NITROGEN (120 h, time 5 day): 14.67 mg/dL | CARBON DIOXIDE (120 h, time 5 day): 24.33 mmol/L | CHLORIDE (120 h, time 5 day): 102.33 MEQ/L | CHOLESTEROL (120 h, time 5 day): 67 mg/dL | CREATINE PHOSPHOKINASE (120 h, time 5 day): 241.33 u/L | CREATININE (120 h, time 5 day): 0.14 mg/dL | GLUCOSE (120 h, time 5 day): 154 mg/dL | LACTATE DEHYDROGENASE (120 h, time 5 day): 200.67 u/L | LIPASE (120 h, time 5 day): 8.33 u/L | PHOSPHORUS (120 h, time 5 day): 14.3 mg/dL | POTASSIUM (120 h, time 5 day): 7.16 MEQ/L | SODIUM (120 h, time 5 day): 144.93 MEQ/L | TOTAL BILIRUBIN (120 h, time 5 day): 0.23 mg/dL | TOTAL PROTEIN (120 h, time 5 day): 5.63 G/DL | URIC ACID (120 h, time 5 day): 1.97 mg/dL
